Assay results from PubChem BioAssay AID2060613 (Molecular Pharmacology Branch, DTP, NCI, 2025).

System: 233499-124-R-J3-PDC complex spheroid viability
Test: Anticancer human tumor 233499-124-R-J3-PDC patient-derived colon adenocarcinoma cell line growth inhibition [CLK]
Conditions: for IC50: curve of first compound; for viability, T/C: stronger effect = lower value
Procedure, shortened: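 Patient-derived tumor cells grown as complex spheroids with HUVEC endothelial cells and mesenchymal stem cells, treated with drug combinations. Concentrations descend in half-log steps from near clinical Cmax, or from 10 microM if Cmax unknown.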
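Also: spheroids exposed to the drug combinations for seven days.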
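For viability, T/C in this document: percent viability relative to DMSO vehicle control wells taken as 100%.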

Compound: Nc1ccccc1NC(=O)c1ccc(CNC(=O)OCc2cccnc2)cc1 + CN1CCN(c2cc(C(=O)Nc3cc4cc(-c5cnn(C)c5)ccc4cn3)ccn2)CC1
- IC50 (second compound 0.0316 µM): 1690 nM
- IC50 (second compound 0.1 µM): 1110 nM
- IC50 (second compound 0.316 µM): < 31.6 nM
- IC50 (second compound 1 µM): < 31.6 nM
- IC50 (second compound 3.16 µM): < 31.6 nM
- IC50 (second compound 10 µM): < 31.6 nM
- viability, T/C (second compound 0.0316 µM, first compound 0.0316 µM): 96.3%
- viability, T/C (second compound 0.0316 µM, first compound 0.1 µM): 89.9%
- viability, T/C (second compound 0.0316 µM, first compound 0.316 µM): 93.6%
- viability, T/C (second compound 0.0316 µM, first compound 1 µM): 80.5%
- viability, T/C (second compound 0.0316 µM, first compound 3.16 µM): 13.5%
- viability, T/C (second compound 0.0316 µM, first compound 10 µM): 0.6%
- viability, T/C (second compound 0.1 µM, first compound 0.0316 µM): 89.3%
- viability, T/C (second compound 0.1 µM, first compound 0.1 µM): 100%
- viability, T/C (second compound 0.1 µM, first compound 0.316 µM): 80.2%
- viability, T/C (second compound 0.1 µM, first compound 1 µM): 56.6%
- viability, T/C (second compound 0.1 µM, first compound 3.16 µM): 2.92%
- viability, T/C (second compound 0.1 µM, first compound 10 µM): 0.44%
- viability, T/C (second compound 0.316 µM, first compound 0.0316 µM): 17.7%
- viability, T/C (second compound 0.316 µM, first compound 0.1 µM): 47.3%
- viability, T/C (second compound 0.316 µM, first compound 0.316 µM): 2.45%
- viability, T/C (second compound 0.316 µM, first compound 1 µM): 0.63%
- viability, T/C (second compound 0.316 µM, first compound 3.16 µM): 0.47%
- viability, T/C (second compound 0.316 µM, first compound 10 µM): 0.63%
- viability, T/C (second compound 1 µM, first compound 0.0316 µM): 0.46%
- viability, T/C (second compound 1 µM, first compound 0.1 µM): 0.44%
- viability, T/C (second compound 1 µM, first compound 0.316 µM): 0.62%
- viability, T/C (second compound 1 µM, first compound 1 µM): 0.56%
- viability, T/C (second compound 1 µM, first compound 3.16 µM): 0.57%
- viability, T/C (second compound 1 µM, first compound 10 µM): 1.23%
- viability, T/C (second compound 3.16 µM, first compound 0.0316 µM): 0.65%
- viability, T/C (second compound 3.16 µM, first compound 0.1 µM): 0.68%
- viability, T/C (second compound 3.16 µM, first compound 0.316 µM): 0.7%
- viability, T/C (second compound 3.16 µM, first compound 1 µM): 0.66%
- viability, T/C (second compound 3.16 µM, first compound 3.16 µM): 0.69%
- viability, T/C (second compound 3.16 µM, first compound 10 µM): 0.59%
- viability, T/C (second compound 10 µM, first compound 0.0316 µM): 0.18%
- viability, T/C (second compound 10 µM, first compound 0.1 µM): 0.24%
- viability, T/C (second compound 10 µM, first compound 0.316 µM): 0.28%
- viability, T/C (second compound 10 µM, first compound 1 µM): 0.28%
- viability, T/C (second compound 10 µM, first compound 3.16 µM): 0.26%
- viability, T/C (second compound 10 µM, first compound 10 µM): 0.35%
